Data reported in US20080319087A1, “Use of Ambroxol for the Treatment of Rhinovirus Infections” (priority 2005, published 2008).
Where a name gives a salt, the structure may show the parent alone.

Key:
[1] = test system: human rhinovirus subtype 14 (HRV 14); assay: plaque-reduction assay, HeLa cells infected with human rhinovirus subtype 14; assay type: cell-based
Description: For the purpose of the study HeLa cells were inocculated with human rhinovirus subtype 14 (HRV 14), isolated from nasopharyngeal secretions. Ambroxol hydrochloride (AX) was chosen as the compound for antiviral testing. The antiviral activity of the test substance was evaluated in the plaque-reduction assay. To test the effect of AX on rhinovirus replication HeLa cells were infected with a multiplicity of infection (MOI) of 0.0002, without (control for 100% infection) or in the presence of AX at concentrations between 0.3 and 10 μg/ml. Infected cell cultures were cultivated for three days. Inhibition of virus plaques was evaluated microscopically and compared with controls.

[2] = test system: HeLa cells; assay type: cell-based; conditions: human, 5 days
Description: As a first step an assay on possible toxic effects of AX was performed by incubating HeLa cells with increasing dilutions of the test substance for 5 days.
Cell morphology was checked using a microscope. In addition, an assay for mitochondrial enzyme activity (MTT-assay) was used to evaluate the vitality of cells. No changes in cell morphology and enzyme activity were found at concentrations of 10 μg AX/ml and below.

[3] = test system: influenza A virus; conditions: mice infected with influenza A virus; Yang et al., Eur. Resp. J. 19, 952-958 (2002); cited from earlier work

Compound	inhibition at 0.3 µg/mL ([1]; Human rhinovirus sp., 72 h, 0.3 μg/ml, HeLa cells, HRV 14, MOI 0.0002, three days, average of 6 individual tests, read-out: relative inhibition)	inhibition at 0.6 µg/mL ([1]; Human rhinovirus sp., 72 h, 0.6 μg/ml, HeLa cells, HRV 14, MOI 0.0002, three days, average of 6 individual tests, read-out: relative inhibition)	inhibition at 1.2 µg/mL ([1]; Human rhinovirus sp., 72 h, 1.2 μg/ml, HeLa cells, HRV 14, MOI 0.0002, three days, average of 6 individual tests, read-out: relative inhibition)	inhibition at 2.5 µg/mL ([1]; Human rhinovirus sp., 72 h, 2.5 μg/ml, HeLa cells, HRV 14, MOI 0.0002, three days, average of 6 individual tests, read-out: relative inhibition)	inhibition at 5 µg/mL ([1]; Human rhinovirus sp., 72 h, 5 μg/ml, HeLa cells, HRV 14, MOI 0.0002, three days, average of 6 individual tests, read-out: relative inhibition)	inhibition at 10 µg/mL ([1]; Human rhinovirus sp., 72 h, 10 μg/ml, HeLa cells, HRV 14, MOI 0.0002, three days, average of 6 individual tests, read-out: relative inhibition)	rhinovirus replication ([1]; conclusion from Table 6)	concentrations at which no changes in cell morphology were found [2]	concentrations at which no changes in enzyme activity were found [2]	survival rate [3]
Nc1c(Br)cc(Br)cc1CN[C@H]1CC[C@H](O)CC1 [Ambroxol hydrochloride]	9.71%	14.4%	34.3%	36.8%	63.7%	70.7%	effectively blocks rhinovirus replication	≤ 10 μg AX/ml	≤ 10 μg AX/ml	
Nc1c(Br)cc(Br)cc1CNC1CCC(O)CC1 (stereo not drawn) [Ambroxol, trans-4-(2-amino-3,5-dibromobenzylamino)-cyclohexanole]										increase the survival rate
